Values of other authors, collected in patent US20180185509A1, “AMATOXIN-CONJUGATES WITH IMPROVED LINKAGES” (Heidelberg Pharma GmbH, priority 2011, published 2018).

Molecular target: RNA-polymerase II (Homo sapiens, UniProt P24928)
Settings: read-out: KD of the complex between amanitin and RNA-polymerase II

amanitin
Kd: 3 nM
